Source: patent publication US20080220103A1, “METHOD FOR TREATING/CONTROLLING/KILLING FUNGI AND BACTERIA ON LIVING ANIMALS” (priority 2005, published 2008)
≈ marks a conversion by molar mass, not a printed value. Where “and” joins values, the source holds several entries; their conditions need not be identical. Identical values can stand only once. Like-named read-outs stand apart in the source and are kept apart here.

How the values were obtained:
S. epidermidis = assay: MIC, CLSI M7-A7, Mueller-Hinton; format: cell-based; conditions: Staphylococcus epidermidis
Description: (§1) Minimum Inhibitory Concentration (MIC): Minimum inhibitory concentrations of synthetic and semisynthetic and natural products against dermatophytes were determined using a modification of the Clinical Laboratory Standards Institute (CLSI, formerly National Committee of Clinical Laboratory Standards, NCCLS) M38A standard method for dermatophytes, while MIC of these agents against Candida species were determined using the CLSI M27-A2 methodology. The method used to determine the MIC against bacteria was based on the CLSI document M7-A7.
(§2) For bacterial species, the medium used to evaluate the antibacterial activity of agents and essential oils was Mueller-Hinton (Oxoid Ltd., Basingstoke, Hampshire, England). Serial dilutions of miconazole, terbinafine, and tolnaftate were prepared in a range of 0.125-64 μg/ml and serial dilutions of tea tree oil were prepared in a range of 0.0078-4 μg/ml, while those for the rest of the essential oils were prepared in a range 0.031-16 μg/ml.

All dermatophytes [1] = assay: MIC, modified CLSI M38A, pooled dermatophytes; format: cell-based, E. floccosum, T. rubrum, T. mentagrophytes
Description: as §1
(§3) For dermatophytes, serial dilutions of terbinafine, tolnaftate were prepared in a range of 0.004-2 μg/ml, while for miconazole concentrations ranged between 0.015-8 μg/ml. Finally, for essential oils, the concentrations tested were between 0.03-16 μg/ml. The only exception was tea tree oil where dilutions were prepared in a range of 0.0078-4 μg/ml. The MIC was read at 4 days post inoculation and defined as the lowest concentration of an agent to inhibit 80% of fungal growth as compared to the growth control (Table 2).
(§4) In the following Tables, MIC50 and MIC90 are defined as the minimal concentrations of a compound that can inhibit 50% and 90% of the tested organisms, respectively.

All dermatophytes [2] = assay: Minimum fungicidal concentration, pooled dermatophytes; format: cell-based, E. floccosum, T. rubrum, T. mentagrophytes; conditions: All dermatophytes, n = 18
Description: (§5) Minimum fungicidal concentration (MFC): The minimum fungicidal concentrations of various agents were determined using the technique described by Canton et al. (Antimicrob Agents Chemother. 2004 8:2477-82). In that method, fungal conidia were collected following growth on potato dextrose agar (PDA) plates and were used to inoculate 96-well plates containing different concentrations of agents. Following incubation at 35° C. for 4 days (for dermatophytes) or 24 hours (for yeast), wells showing no visible growth were cultured to determine the MFC (defined as the lowest concentration of a given agent that kills>99.999% of fungal conidia or spores). The MFC value represents the level of the agent at which spores or conidia were killed.
as §4

T. mentagrophytes [3] = assay: MIC, modified CLSI M38A broth dilution; format: cell-based, Trichophyton mentagrophytes
Description: as §1, §3

T. mentagrophytes [4] = assay: Minimum fungicidal concentration (Canton et al.); format: cell-based, Trichophyton mentagrophytes; conditions: for MFC: Trichophyton mentagrophytes
Description: as §5

[5] = system: All bacteria (Staphylococcus species); assay: MIC, CLSI M7-A7, pooled bacteria; format: cell-based, S. aureus, S. epidermidis; conditions: Staphylococcus, n = 12
Description: as §1, §2, §4

T. rubrum [6] = assay: MIC, modified CLSI M38A broth dilution; format: cell-based, Trichophyton rubrum
Description: as §1, §3

T. rubrum [7] = assay: Minimum fungicidal concentration (Canton et al.); format: cell-based, Trichophyton rubrum; conditions: for MFC: Trichophyton rubrum
Description: as §5

E. floccosum [8] = assay: Minimum fungicidal concentration (Canton et al.); format: cell-based, Epidermophyton floccosum; conditions: for MFC: Epidermophyton floccosum
Description: as §5

E. floccosum [9] = assay: MIC, modified CLSI M38A broth dilution; format: cell-based, Epidermophyton floccosum
Description: as §1, §3

C. parapsilosis = assay: MIC, CLSI M27-A2; format: cell-based, Candida parapsilosis
Description: as §1
The remaining essential oils were prepared in a dilution range of 0.03-16 μg/ml. For Candida the MIC was read at 24 hours and defined as the lowest concentration to inhibit 50% of fungal growth as compared to the growth control (Table 4).

[10] = Trichophyton mentagrophytes, T. mentagrophytes, n = 6
[11] = Trichophyton rubrum, T. rubrum, n = 6
[12] = Epidermophyton floccosum, E. floccosum, n = 6
[13] = Lodderomyces parapsilosis, C. parapsilosis, n = 6

MIC (S. epidermidis; S. epidermidis strain 8472, read-out: MIC): 2 µg/mL (≈ 6.51 µM) | MIC (S. epidermidis; S. epidermidis strain 8473, read-out: MIC): 16 µg/mL (≈ 52 µM) | MIC (S. epidermidis; S. epidermidis strain 8474, read-out: MIC): 2 µg/mL (≈ 6.51 µM) | MIC (S. epidermidis; S. epidermidis strain 8475, read-out: MIC): > 64 µg/mL | MIC (S. epidermidis; S. epidermidis strain 8476, read-out: MIC): > 64 µg/mL | MIC (S. epidermidis; S. epidermidis strain 8477, read-out: MIC): > 64 µg/mL | MIC (S. epidermidis; S. epidermidis, two strains, read-out: MIC values): 2 µg/mL (≈ 6.51 µM) | MIC50 (S. epidermidis; S. epidermidis, n = 6): 16 µg/mL (≈ 52 µM) | MIC90 (S. epidermidis; S. epidermidis, n = 6): > 64 µg/mL | MIC50 (All dermatophytes [1]; n = 18): 0.06 µg/mL (≈ 0.195 µM) | MIC90 (All dermatophytes [1]; n = 18): 0.125 µg/mL (≈ 0.407 µM) | MIC Range (All dermatophytes [1]; n = 18, listed as tolnaftate): 0.008 to 0.125 µg/mL | MIC Range (T. mentagrophytes [3]; T. mentagrophytes, n = 6): 0.008 to 0.125 µg/mL | MIC (T. mentagrophytes [3]; Trichophyton mentagrophytes, T. mentagrophytes strain 1720): 0.008 µg/mL (≈ 0.026 µM) | MIC (T. mentagrophytes [3]; Trichophyton mentagrophytes, T. mentagrophytes strain 2124): 0.06 µg/mL (≈ 0.195 µM) | MIC (T. mentagrophytes [3]; Trichophyton mentagrophytes, T. mentagrophytes strain 2125): 0.06 µg/mL (≈ 0.195 µM) | MIC (T. mentagrophytes [3]; Trichophyton mentagrophytes, T. mentagrophytes strain 2126): 0.004 µg/mL (≈ 0.013 µM) | MIC (T. mentagrophytes [3]; Trichophyton mentagrophytes, T. mentagrophytes strain 2127): 0.06 µg/mL (≈ 0.195 µM) | MIC (T. mentagrophytes [3]; Trichophyton mentagrophytes, T. mentagrophytes strain 2128): 0.125 µg/mL (≈ 0.407 µM) | MIC50 (T. mentagrophytes [3]; [10]): 0.06 µg/mL (≈ 0.195 µM) | MIC90 (T. mentagrophytes [3]; [10]): 0.125 µg/mL (≈ 0.407 µM) | MIC50 [5]: > 64 µg/mL | MIC90 [5]: > 64 µg/mL | MIC Range (T. rubrum [6]; T. rubrum, n = 6): 0.008 to 0.015 µg/mL | MIC (T. rubrum [6]; Trichophyton rubrum, T. rubrum strain 1967): 0.015 µg/mL (≈ 0.0488 µM) | MIC (T. rubrum [6]; Trichophyton rubrum, T. rubrum strain 2098): 0.015 µg/mL (≈ 0.0488 µM) | MIC (T. rubrum [6]; Trichophyton rubrum, T. rubrum strain 2246): 0.008 µg/mL (≈ 0.026 µM) | MIC (T. rubrum [6]; Trichophyton rubrum, T. rubrum strain 8063): 0.008 µg/mL (≈ 0.026 µM) | MIC (T. rubrum [6]; Trichophyton rubrum, T. rubrum strain 8071): 0.015 µg/mL (≈ 0.0488 µM) | MIC (T. rubrum [6]; Trichophyton rubrum, T. rubrum strain 8092): 0.015 µg/mL (≈ 0.0488 µM) | MIC50 (T. rubrum [6]; [11]): 0.015 µg/mL (≈ 0.0488 µM) | MIC90 (T. rubrum [6]; [11]): 0.015 µg/mL (≈ 0.0488 µM) | MIC Range (E. floccosum [9]; E. floccosum, n = 6): 0.06 to 0.125 µg/mL | MIC (E. floccosum [9]; Epidermophyton floccosum, E. floccosum strain 1666): 0.06 µg/mL (≈ 0.195 µM) | MIC (E. floccosum [9]; Epidermophyton floccosum, E. floccosum strain 1798): 0.06 µg/mL (≈ 0.195 µM) | MIC (E. floccosum [9]; Epidermophyton floccosum, E. floccosum strain 1925): 0.06 µg/mL (≈ 0.195 µM) | MIC (E. floccosum [9]; Epidermophyton floccosum, E. floccosum strain 1926): 0.125 µg/mL (≈ 0.407 µM) | MIC (E. floccosum [9]; Epidermophyton floccosum, E. floccosum strain 1961): 0.125 µg/mL (≈ 0.407 µM) | MIC (E. floccosum [9]; Epidermophyton floccosum, E. floccosum strain 2165): 0.06 µg/mL (≈ 0.195 µM) | MIC50 (E. floccosum [9]; [12]): 0.06 µg/mL (≈ 0.195 µM) | MIC90 (E. floccosum [9]; [12]): 0.125 µg/mL (≈ 0.407 µM) | MIC Range (C. parapsilosis; C. parapsilosis, n = 6): 0.5 to 16 µg/mL | MIC (C. parapsilosis; Lodderomyces parapsilosis, C. parapsilosis strain 7629): 0.5 µg/mL (≈ 1.63 µM) | MIC (C. parapsilosis; Lodderomyces parapsilosis, C. parapsilosis strain 7668): 8 µg/mL (≈ 26 µM) | MIC (C. parapsilosis; Lodderomyces parapsilosis, C. parapsilosis strain 7672): 8 µg/mL (≈ 26 µM) | MIC (C. parapsilosis; Lodderomyces parapsilosis, C. parapsilosis strain 7995): 8 µg/mL (≈ 26 µM) | MIC (C. parapsilosis; Lodderomyces parapsilosis, C. parapsilosis strain 8148): 8 µg/mL (≈ 26 µM) | MIC (C. parapsilosis; Lodderomyces parapsilosis, C. parapsilosis strain 8442): 16 µg/mL (≈ 52 µM) | MIC (C. parapsilosis; Lodderomyces parapsilosis, C. parapsilosis, the other isolates (not #7629)): 8 to 16 µg/mL (≈ 26 to 52 µM) | MIC50 (C. parapsilosis; [13]): 8 µg/mL (≈ 26 µM) | MIC90 (C. parapsilosis; [13]): 8 µg/mL (≈ 26 µM)
Structure (SMILES): Cc1cccc(N(C)C(=S)Oc2ccc3ccccc3c2)c1 [Tolnaftate, tolnaftate]
MFC Range (All dermatophytes [2]): 0.06 to 1.0 µg/mL and 0.06 to 1 µg/mL | MFC Range (All dermatophytes [2]; listed as tolnaftate): 0.06 to 0.125 µg/mL | MFC (All dermatophytes [2]; read-out: MFC, row MIC50): 0.125 µg/mL (≈ 0.407 µM) | MFC (All dermatophytes [2]; read-out: MFC, row MIC90): 1 µg/mL (≈ 3.25 µM) | MFC range (row MIC Range) (T. mentagrophytes [4]; T. mentagrophytes, n = 6): 0.5 to 1 µg/mL | MFC (T. mentagrophytes [4]; T. mentagrophytes strain 2124, read-out: MFC): 0.5 µg/mL (≈ 1.63 µM) | MFC (T. mentagrophytes [4]; T. mentagrophytes strain 2125, read-out: MFC): 0.5 µg/mL (≈ 1.63 µM) | MFC (T. mentagrophytes [4]; T. mentagrophytes strain 2127, read-out: MFC): 1 µg/mL (≈ 3.25 µM) | MFC (T. mentagrophytes [4]; T. mentagrophytes strain 2128, read-out: MFC): 1 µg/mL (≈ 3.25 µM) | MFC (T. mentagrophytes [4]; T. mentagrophytes, n = 6, read-out: MFC, row MIC50): 0.5 µg/mL (≈ 1.63 µM) | MFC (T. mentagrophytes [4]; T. mentagrophytes, n = 6, read-out: MFC, row MIC90): 1 µg/mL (≈ 3.25 µM) | MFC range (row MIC Range) (T. rubrum [7]; T. rubrum, n = 6): 0.06 to 0.125 µg/mL | MFC (T. rubrum [7]; T. rubrum strain 1967, read-out: MFC): 0.06 µg/mL (≈ 0.195 µM) | MFC (T. rubrum [7]; T. rubrum strain 2098, read-out: MFC): 0.06 µg/mL (≈ 0.195 µM) | MFC (T. rubrum [7]; T. rubrum strain 2246, read-out: MFC): 0.06 µg/mL (≈ 0.195 µM) | MFC (T. rubrum [7]; T. rubrum strain 8063, read-out: MFC): 0.06 µg/mL (≈ 0.195 µM) | MFC (T. rubrum [7]; T. rubrum strain 8071, read-out: MFC): 0.06 µg/mL (≈ 0.195 µM) | MFC (T. rubrum [7]; T. rubrum strain 8092, read-out: MFC): 0.125 µg/mL (≈ 0.407 µM) | MFC (T. rubrum [7]; T. rubrum, n = 6, read-out: MFC, row MIC50): 0.06 µg/mL (≈ 0.195 µM) | MFC (T. rubrum [7]; T. rubrum, n = 6, read-out: MFC, row MIC90): 0.125 µg/mL (≈ 0.407 µM) | MFC range (row MIC Range) (E. floccosum [8]; E. floccosum, n = 6): 0.25 to 0.5 µg/mL | MFC (E. floccosum [8]; E. floccosum strain 1666, read-out: MFC): 0.25 µg/mL (≈ 0.813 µM) | MFC (E. floccosum [8]; E. floccosum strain 1798, read-out: MFC): 0.25 µg/mL (≈ 0.813 µM) | MFC (E. floccosum [8]; E. floccosum strain 1925, read-out: MFC): 0.25 µg/mL (≈ 0.813 µM) | MFC (E. floccosum [8]; E. floccosum strain 1926, read-out: MFC): 0.5 µg/mL (≈ 1.63 µM) | MFC (E. floccosum [8]; E. floccosum strain 1961, read-out: MFC): 0.5 µg/mL (≈ 1.63 µM) | MFC (E. floccosum [8]; E. floccosum strain 2165, read-out: MFC): 0.25 µg/mL (≈ 0.813 µM) | MFC (E. floccosum [8]; E. floccosum, n = 6, read-out: MFC, row MIC50): 0.25 µg/mL (≈ 0.813 µM) | MFC (E. floccosum [8]; E. floccosum, n = 6, read-out: MFC, row MIC90): 0.5 µg/mL (≈ 1.63 µM)
